According to patent US10870647B2, “Imidazopyridine derivative, method for preparing same, and pharmaceutical composition containing same as active ingredient for preventing or treating cancer” (DAEGU-GYEONGBUK MEDICAL INNOVATION FOUNDATION, priority 2016, dated 2020):

What was measured:
Experiment in all cases: Kinase selectivity, scanMAX Kinase assay panel (DiscoverX), % control at 1 uM
Format in all cases: binding
[1] = biological target: T1, scanMAX Kinase assay panel (Homo sapiens, UniProt P00519, E255K); settings: ABL1 (E255K)-phosphorylated; 1 uM; read-out: Percent Control (%)
T1 construct: purchased DiscoverX
Summary of the method: (§1)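 1 uM cpd (DMSO) per kinase; % ctrl = [cpd − pos ctrl]/[neg ctrl − pos ctrl] × 100; hit if <35.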

[2] = biological target: T2, scanMAX Kinase assay panel (Homo sapiens, UniProt P53779); settings: JNK3; 1 uM; read-out: Percent Control (%)
T2 construct: purchased DiscoverX
Summary of the method: as §1

[3] = biological target: T3, scanMAX Kinase assay panel (Homo sapiens, UniProt Q02750); settings: MEK1; 1 uM; read-out: Percent Control (%)
T3 construct: purchased DiscoverX
Summary of the method: as §1

[4] = biological target: T4, scanMAX Kinase assay panel (Homo sapiens, UniProt Q07002); settings: PCTK3; 1 uM; read-out: Percent Control (%)
T4 construct: purchased DiscoverX
Summary of the method: as §1

[5] = biological target: T5, scanMAX Kinase assay panel (Homo sapiens, UniProt Q12851); settings: MAP4K2; 1 uM; read-out: Percent Control (%)
T5 construct: purchased DiscoverX
T5 sequence (Q12851 1-820): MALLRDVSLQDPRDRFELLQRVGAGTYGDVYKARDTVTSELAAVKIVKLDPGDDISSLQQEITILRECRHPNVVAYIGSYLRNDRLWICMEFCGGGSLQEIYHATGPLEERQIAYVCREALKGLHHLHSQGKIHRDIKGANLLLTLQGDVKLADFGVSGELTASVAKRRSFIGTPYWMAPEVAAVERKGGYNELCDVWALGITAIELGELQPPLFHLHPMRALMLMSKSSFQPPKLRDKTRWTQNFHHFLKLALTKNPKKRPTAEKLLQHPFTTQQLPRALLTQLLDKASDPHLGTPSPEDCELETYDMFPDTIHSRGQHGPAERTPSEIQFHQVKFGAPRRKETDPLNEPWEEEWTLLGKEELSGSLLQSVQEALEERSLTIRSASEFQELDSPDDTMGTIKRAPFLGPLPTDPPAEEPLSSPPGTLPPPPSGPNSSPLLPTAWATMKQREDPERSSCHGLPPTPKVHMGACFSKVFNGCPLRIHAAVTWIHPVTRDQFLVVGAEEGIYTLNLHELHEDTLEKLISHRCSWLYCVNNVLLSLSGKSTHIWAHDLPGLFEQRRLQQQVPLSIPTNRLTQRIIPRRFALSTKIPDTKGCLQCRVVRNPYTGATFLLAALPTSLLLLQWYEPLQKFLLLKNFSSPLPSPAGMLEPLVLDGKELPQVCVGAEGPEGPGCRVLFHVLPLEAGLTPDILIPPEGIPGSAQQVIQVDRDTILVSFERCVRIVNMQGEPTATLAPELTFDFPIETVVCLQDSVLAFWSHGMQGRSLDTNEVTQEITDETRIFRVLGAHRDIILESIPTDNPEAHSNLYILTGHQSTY
Summary of the method: as §1

[6] = biological target: T6, scanMAX Kinase assay panel (Homo sapiens, UniProt Q96L34); settings: MARK4; 1 uM; read-out: Percent Control (%)
T6 construct: purchased DiscoverX
T6 sequence (Q96L34 1-752): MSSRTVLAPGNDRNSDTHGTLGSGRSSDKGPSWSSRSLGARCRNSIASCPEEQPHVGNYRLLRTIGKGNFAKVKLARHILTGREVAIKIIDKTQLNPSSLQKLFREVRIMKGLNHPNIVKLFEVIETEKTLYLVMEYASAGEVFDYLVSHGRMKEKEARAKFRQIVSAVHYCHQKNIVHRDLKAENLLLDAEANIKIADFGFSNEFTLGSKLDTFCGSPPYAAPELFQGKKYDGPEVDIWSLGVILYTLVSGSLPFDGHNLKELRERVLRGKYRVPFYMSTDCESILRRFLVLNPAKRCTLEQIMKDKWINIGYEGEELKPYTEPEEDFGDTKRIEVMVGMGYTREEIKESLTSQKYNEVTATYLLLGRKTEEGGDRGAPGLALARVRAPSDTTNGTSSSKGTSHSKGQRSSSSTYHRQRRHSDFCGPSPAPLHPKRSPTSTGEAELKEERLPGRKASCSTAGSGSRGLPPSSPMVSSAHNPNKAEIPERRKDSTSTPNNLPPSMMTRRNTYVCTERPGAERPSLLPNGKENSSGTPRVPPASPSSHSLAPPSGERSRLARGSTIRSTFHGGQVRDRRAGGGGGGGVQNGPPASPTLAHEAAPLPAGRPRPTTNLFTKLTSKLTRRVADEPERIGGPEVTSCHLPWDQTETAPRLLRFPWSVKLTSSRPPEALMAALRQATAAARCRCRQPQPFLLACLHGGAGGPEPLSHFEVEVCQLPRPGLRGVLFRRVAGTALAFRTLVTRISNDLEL
Summary of the method: as §1

[7] = biological target: T7, scanMAX Kinase assay panel (Homo sapiens, UniProt Q9HCP0); settings: CSNK1G1; 1 uM; read-out: Percent Control (%)
T7 construct: purchased DiscoverX
Summary of the method: as §1

[8] = biological target: T8, scanMAX Kinase assay panel (Homo sapiens, UniProt Q9NYL2); settings: ZAK; 1 uM; read-out: Percent Control (%)
T8 construct: purchased DiscoverX
Summary of the method: as §1

T4 sequence (Q07002 whole entry): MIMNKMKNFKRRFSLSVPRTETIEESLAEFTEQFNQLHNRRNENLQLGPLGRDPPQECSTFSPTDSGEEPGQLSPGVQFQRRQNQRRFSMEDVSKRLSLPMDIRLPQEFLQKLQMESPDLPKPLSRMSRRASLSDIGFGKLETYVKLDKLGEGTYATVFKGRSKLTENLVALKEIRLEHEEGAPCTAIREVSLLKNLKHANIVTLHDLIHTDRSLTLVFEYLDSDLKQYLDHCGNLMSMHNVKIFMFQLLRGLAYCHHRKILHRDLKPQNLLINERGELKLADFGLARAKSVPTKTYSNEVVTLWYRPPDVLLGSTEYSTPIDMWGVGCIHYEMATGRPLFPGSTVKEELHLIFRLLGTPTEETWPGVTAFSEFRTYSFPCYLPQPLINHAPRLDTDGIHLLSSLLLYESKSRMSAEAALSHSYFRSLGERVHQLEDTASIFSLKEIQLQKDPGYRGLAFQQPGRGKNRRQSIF
T2 sequence (P53779 whole entry): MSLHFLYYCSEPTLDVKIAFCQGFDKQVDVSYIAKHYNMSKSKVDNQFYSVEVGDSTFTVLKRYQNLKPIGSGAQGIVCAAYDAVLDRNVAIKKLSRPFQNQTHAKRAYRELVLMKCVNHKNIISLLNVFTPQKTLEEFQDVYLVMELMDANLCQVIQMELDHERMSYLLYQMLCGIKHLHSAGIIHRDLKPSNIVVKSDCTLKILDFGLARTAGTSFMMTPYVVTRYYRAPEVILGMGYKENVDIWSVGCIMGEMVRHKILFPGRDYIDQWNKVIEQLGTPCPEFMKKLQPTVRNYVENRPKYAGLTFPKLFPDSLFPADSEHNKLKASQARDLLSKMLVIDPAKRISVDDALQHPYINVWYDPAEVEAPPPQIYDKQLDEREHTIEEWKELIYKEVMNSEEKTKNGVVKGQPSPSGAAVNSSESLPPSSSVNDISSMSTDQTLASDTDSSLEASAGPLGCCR
T3 sequence (Q02750 whole entry): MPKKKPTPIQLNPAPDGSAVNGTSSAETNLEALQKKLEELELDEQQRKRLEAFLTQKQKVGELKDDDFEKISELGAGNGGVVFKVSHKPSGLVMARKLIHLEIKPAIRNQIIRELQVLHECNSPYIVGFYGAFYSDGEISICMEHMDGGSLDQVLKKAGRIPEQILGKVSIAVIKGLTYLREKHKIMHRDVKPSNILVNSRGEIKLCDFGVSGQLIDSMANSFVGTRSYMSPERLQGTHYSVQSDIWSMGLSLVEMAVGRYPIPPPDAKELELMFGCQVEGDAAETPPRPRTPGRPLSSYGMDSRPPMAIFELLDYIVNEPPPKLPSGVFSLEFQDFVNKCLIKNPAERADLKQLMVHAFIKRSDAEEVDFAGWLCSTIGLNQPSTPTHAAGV
T7 sequence (Q9HCP0 whole entry): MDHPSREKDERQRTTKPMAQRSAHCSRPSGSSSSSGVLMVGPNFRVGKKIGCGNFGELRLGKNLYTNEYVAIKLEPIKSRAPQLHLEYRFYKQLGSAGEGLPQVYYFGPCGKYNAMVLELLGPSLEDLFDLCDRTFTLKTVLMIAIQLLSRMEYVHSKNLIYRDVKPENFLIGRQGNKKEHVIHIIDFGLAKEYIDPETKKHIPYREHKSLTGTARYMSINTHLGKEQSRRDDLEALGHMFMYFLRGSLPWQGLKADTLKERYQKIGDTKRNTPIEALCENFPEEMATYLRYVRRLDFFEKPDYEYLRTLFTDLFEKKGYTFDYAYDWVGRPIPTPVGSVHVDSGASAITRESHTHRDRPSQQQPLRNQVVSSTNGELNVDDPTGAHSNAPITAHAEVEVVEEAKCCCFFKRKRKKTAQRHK
T1 sequence (P00519 whole entry E255K): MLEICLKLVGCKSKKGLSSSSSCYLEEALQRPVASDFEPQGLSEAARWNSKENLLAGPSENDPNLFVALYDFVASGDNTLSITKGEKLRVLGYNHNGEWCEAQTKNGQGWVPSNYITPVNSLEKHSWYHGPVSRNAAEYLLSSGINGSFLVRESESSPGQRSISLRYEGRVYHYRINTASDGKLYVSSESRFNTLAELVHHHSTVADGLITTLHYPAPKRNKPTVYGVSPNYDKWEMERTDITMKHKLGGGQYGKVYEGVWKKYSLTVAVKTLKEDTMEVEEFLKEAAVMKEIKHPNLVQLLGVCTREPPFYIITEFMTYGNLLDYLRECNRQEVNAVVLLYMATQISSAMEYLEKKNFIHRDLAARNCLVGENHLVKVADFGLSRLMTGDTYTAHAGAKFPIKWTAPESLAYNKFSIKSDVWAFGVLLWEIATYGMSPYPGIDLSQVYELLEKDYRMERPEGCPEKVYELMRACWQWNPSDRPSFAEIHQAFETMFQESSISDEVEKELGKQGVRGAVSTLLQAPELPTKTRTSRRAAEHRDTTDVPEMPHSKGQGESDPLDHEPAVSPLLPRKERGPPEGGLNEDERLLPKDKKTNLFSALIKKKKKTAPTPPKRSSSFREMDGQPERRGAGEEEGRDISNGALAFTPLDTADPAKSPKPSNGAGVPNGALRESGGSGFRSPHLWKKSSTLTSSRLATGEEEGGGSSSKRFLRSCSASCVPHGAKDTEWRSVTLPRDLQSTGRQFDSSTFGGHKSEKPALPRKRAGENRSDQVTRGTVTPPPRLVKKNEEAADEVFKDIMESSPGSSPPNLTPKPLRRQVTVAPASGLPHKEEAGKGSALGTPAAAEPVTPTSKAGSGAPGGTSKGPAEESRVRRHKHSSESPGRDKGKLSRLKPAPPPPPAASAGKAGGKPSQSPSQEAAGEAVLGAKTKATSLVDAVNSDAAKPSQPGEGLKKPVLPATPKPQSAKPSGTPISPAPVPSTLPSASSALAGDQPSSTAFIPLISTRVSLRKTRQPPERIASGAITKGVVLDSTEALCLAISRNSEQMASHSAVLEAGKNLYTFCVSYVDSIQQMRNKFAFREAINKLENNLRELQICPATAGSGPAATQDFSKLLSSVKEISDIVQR
T8 sequence (Q9NYL2 whole entry): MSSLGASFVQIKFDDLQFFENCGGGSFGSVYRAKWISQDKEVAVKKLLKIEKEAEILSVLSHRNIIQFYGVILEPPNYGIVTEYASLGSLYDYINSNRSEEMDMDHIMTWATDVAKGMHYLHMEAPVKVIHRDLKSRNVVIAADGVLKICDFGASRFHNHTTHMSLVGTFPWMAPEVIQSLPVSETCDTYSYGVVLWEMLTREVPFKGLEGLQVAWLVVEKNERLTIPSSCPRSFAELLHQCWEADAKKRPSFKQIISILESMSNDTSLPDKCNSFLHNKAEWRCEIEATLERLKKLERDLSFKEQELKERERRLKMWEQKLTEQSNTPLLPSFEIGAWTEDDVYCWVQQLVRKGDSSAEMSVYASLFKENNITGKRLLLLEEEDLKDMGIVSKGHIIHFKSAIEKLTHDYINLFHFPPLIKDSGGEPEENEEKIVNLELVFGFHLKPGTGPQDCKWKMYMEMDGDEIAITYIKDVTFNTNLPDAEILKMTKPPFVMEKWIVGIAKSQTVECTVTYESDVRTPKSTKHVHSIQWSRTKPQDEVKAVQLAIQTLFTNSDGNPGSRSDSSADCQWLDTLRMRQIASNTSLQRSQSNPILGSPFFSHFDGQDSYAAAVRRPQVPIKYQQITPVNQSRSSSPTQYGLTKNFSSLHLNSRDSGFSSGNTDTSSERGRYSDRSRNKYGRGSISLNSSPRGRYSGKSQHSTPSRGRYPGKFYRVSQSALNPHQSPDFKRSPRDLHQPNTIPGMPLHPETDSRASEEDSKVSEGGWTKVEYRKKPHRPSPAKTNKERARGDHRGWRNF

Structure (SMILES) | remaining binding at 1 µM [1] | remaining binding at 1 µM [2] | remaining binding at 1 µM [3] | remaining binding at 1 µM [4] | remaining binding at 1 µM [5] | remaining binding at 1 µM [6] | remaining binding at 1 µM [7] | remaining binding at 1 µM [8]
Cc1ccc(NC(=O)C2(C(=O)Nc3ccc(F)cc3)CC2)cc1C#Cc1cnc2c(Nc3cnn(C(C)C)c3)cccn12 [Example 78] | 84% | 100% | 100% | 100% | 100% | 97% | 100% | 19%
Cc1cn(-c2cc(NC(=O)c3ccc(C)c(C#Cc4cnc5c(Nc6cnn(C)c6)cccn45)c3)cc(C(F)(F)F)c2)cn1 [Example 12, 4-methyl-N-(3-(4-methyl-1H-imidazol-1-yl)-5-(trifluoromethyl)phenyl)-3-((8-((1-methyl-1H-pyrazol-4-yl)amino)imidazo[1,2-a]pyridin-3-yl)ethynyl)benzamide] | 8% | 98% | 100% | 84% | 98% | 86% | 95% | 1%
Cc1ccc(C(=O)Nc2ccc(CN3CCN(C)CC3)c(C(F)(F)F)c2)cc1C#Cc1cnc2c(Nc3cnn(C)c3)cccn12 [Example 1, 4-methyl-3-((8-((1-methyl-1H-pyrazol-4-yl)amino)imidazo[1,2-a]pyridin-3-yl)ethynyl)-N-(4-((4-methylpiperazin-1-yl)methyl)-3-(trifluoromethyl)phenyl)benzamide] | 0% | 19% | 100% | 60% | 1% | 100% | 73% | 1%
